Legend:
Carbonic anhydrase 1 = Carbonic anhydrase 1 (Homo sapiens, UniProt P00915); experiment: Inhibition of human carbonic anhydrase 1 after 6 hrs by Lineweaver-Burk plot analysis
Carbonic anhydrase 2 = Carbonic anhydrase 2 (Homo sapiens, UniProt P00918); experiment: Inhibition of human carbonic anhydrase 2 after 6 hrs by Lineweaver-Burk plot analysis

Carbonic anhydrase 1, sequence (P00915 whole entry): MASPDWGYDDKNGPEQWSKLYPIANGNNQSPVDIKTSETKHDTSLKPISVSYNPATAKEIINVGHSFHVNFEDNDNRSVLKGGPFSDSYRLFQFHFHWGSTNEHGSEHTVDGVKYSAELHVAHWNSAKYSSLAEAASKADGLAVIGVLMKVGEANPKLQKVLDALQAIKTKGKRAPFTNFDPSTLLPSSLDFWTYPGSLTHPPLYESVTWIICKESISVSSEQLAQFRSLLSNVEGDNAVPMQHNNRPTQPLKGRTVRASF

SMILES: Cc1ccc(C(=O)C(O)(O)C(F)(F)F)cc1
- Ki (Carbonic anhydrase 1): 410 µM
- Ki (Carbonic anhydrase 2): 9 µM
